The values that follow come from patent US8168592B2 (Amgen Inc., priority 2005, dated 2012).

Read-outs that look alike come from different tables or passages of the source. Bridge positions count the residues as written; N and C are the ends. Square brackets hold non-standard residues; d marks the D form. Peptide text beside a SMILES is read from it. Oic = O=C(O)[C@@H]1C[C@@H]2CCCC[C@@H]2N1; 2Nal = N[C@@H](Cc1ccc2ccccc2c1)C(=O)O; hArg = N=C(N)NCCCC[C@H](N)C(=O)O; Cit = NC(=O)NCCC[C@H](N)C(=O)O; PEG = not defined here

This test deals with T1, CGRP1 receptor (Homo sapiens, UniProt O60894+Q16602).
T1 construct: SK-N-MC cells express CRLR and RAMP1, which form CGRP1 receptor; endogenous in cells; host or cells: SK-N-MC human neuroblastoma cells
Description: in vitro CGRP1 receptor mediated cAMP assay in SK-N-MC cells. The format is cell-based. The procedure: The in vitro cAMP assay employed a human neuroblastoma-derived cell line (SK-N-MC). SK-N-MC cells express CRLR and RAMP1, which form CGRP1 receptor. CGRP1 receptor is a G-protein coupled receptor linked to the stimulatory G-protein, Gs. […] Briefly, two days before the assay, the cells were plated in 96-well plates in growth medium. On the day of the assay cells were rinsed with PBS followed by the addition of 60 μl of plasma free medium for 15 minutes at room temperature. […] The medium was then removed and the cells were lysed with 100 μl lysis buffer for 30 minutes at 37° C. for 30 minutes. Using a Tropix ELISA kit (Applied Biosystems, Foster City, Calif.), a cAMP-AP conjugate was diluted (1:100) and added (30 μl) to each well of a 96-well ELISA plate. An aliquot of the lysis buffer from the cell plate was then added to the ELISA plate followed by an aliquot of the cAMP antibody. This mixture was incubated for 1 hour at room temperature with gentle shaking. The ELISA plate was then washed 6× with wash buffer followed by the additions of a substrate enhancer. This mixture was incubated for 30 minutes at room temperature and then read on a MicroBeta Jet or EnVision plate reader. The results were analyzed using Prism (GraphPad).
A general note: Cyclic AMP is a second messenger, typically raised through Gs and lowered through Gi signalling.

The mark [1] stands for this setting: Table 2C, unconjugated peptide, read-out: Peptide IC50.
Where [2] appears, read: Peptide IC50, Table 2C, unconjugated peptide.

T1 sequence (Q16602 23-461): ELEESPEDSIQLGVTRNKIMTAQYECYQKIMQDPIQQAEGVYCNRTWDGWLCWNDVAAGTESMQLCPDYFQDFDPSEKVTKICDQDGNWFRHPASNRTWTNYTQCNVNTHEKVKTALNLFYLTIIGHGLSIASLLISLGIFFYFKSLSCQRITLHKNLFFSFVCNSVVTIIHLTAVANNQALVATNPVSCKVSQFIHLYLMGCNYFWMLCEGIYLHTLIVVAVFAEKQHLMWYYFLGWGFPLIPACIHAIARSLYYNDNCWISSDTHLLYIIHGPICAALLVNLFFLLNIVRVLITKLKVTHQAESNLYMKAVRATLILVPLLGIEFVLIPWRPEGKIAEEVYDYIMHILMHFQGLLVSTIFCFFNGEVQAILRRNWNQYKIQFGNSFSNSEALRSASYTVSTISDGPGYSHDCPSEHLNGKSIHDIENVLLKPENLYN
T1 sequence (O60894 27-148): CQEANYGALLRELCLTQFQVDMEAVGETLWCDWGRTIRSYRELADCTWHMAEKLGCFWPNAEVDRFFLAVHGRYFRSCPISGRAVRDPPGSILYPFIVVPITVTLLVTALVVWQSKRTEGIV

As for `CC(=O)N[C@@H](Cc1c[nH]c2ccccc12)C(=O)N[C@H](C(=O)N[C@H](C(=O)N[C@@H](Cc1c[nH]cn1)C(=O)N[C@@H](CCCNC(N)=O)C(=O)N[C@@H](CC(C)C)C(=O)N[C@@H](C)C(=O)NCC(=O)N[C@@H](CC(C)C)C(=O)N[C@@H](CC(C)C)C(=O)N[C@@H](CO)C(=O)N[C@@H](CCCNC(N)=O)C(=O)N[C@@H](CO)C(=O)NCC(=O)NCC(=O)N[C@H](C(=O)N[C@H](C(=O)N[C@@H](CCCCNC(=N)N)C(=O)N[C@@H](CCCCN)C(=O)N[C@@H](CC(N)=O)C(=O)N[C@@H](Cc1ccc(I)cc1)C(=O)N[C@H](C(=O)N1CCC[C@H]1C(=O)N[C@H](C(=O)N[C@@H](CC(=O)O)C(=O)N[C@H](C(=O)NCC(=O)N1CCC[C@H]1C(=O)N[C@@H](Cc1ccc(I)cc1)C(=O)N[C@@H](C)C(=O)N[C@@H](Cc1ccccc1)C(N)=O)C(C)C)[C@@H](C)O)C(C)C)C(C)C)C(C)C)[C@@H](C)O)C(C)C` [compound 928], the IC50 (commonly the concentration needed to halve the response being measured) under setting [1] was found to be 1.16 nM.

Consider “Ac-WVTHRLAGLLSQSGGVVRKNFVPTDVGPFAF-NH2 [compound 856]”, for which, under setting [1], the half-inhibitory concentration (IC50) stood at 0.47 nM.

For the compound “SEQ ID NO:14 (Ac-WVTHRLAGLLSRSGGVVC(PEG)NNFVPTDVGPFAF-NH2; reading uncertain)”, the “antagonist activity in cAMP assay, in words” value is “little effect on the antagonist activity of the parent peptide”.

For `CC(=O)N[C@@H](Cc1c[nH]c2ccccc12)C(=O)N[C@H](C(=O)N[C@H](C(=O)N[C@@H](Cc1c[nH]cn1)C(=O)N[C@@H](CCCNC(=N)N)C(=O)N[C@@H](CC(C)C)C(=O)N[C@@H](C)C(=O)NCC(=O)N[C@@H](CC(C)C)C(=O)N[C@@H](CC(C)C)C(=O)N[C@@H](CO)C(=O)N[C@H](CCCNC(=N)N)C(=O)N[C@@H](CO)C(=O)NCC(=O)NCC(=O)N[C@H](C(=O)N[C@H](C(=O)N[C@@H](CCCNC(=N)N)C(=O)N[C@@H](CS)C(=O)N[C@@H](CC(N)=O)C(=O)N[C@@H](Cc1ccccc1)C(=O)N[C@H](C(=O)N1CCC[C@H]1C(=O)N[C@H](C(=O)N[C@@H](CC(=O)O)C(=O)N[C@H](C(=O)NCC(=O)N1CCC[C@H]1C(=O)N[C@@H](Cc1ccccc1)C(=O)N[C@@H](C)C(=O)N[C@@H](Cc1ccccc1)C(N)=O)C(C)C)[C@@H](C)O)C(C)C)C(C)C)C(C)C)[C@@H](C)O)C(C)C` [compound 776] (Ac-WVTHRLAGLLS[dR]SGGVVRCNFVPTDVGPFAF-NH2), for the setting “Table 2D, read-out: IC50”, the half-maximal inhibitory concentration (IC50) turned out to be 0.59 nM.

On to `CC(=O)N[C@@H](Cc1c[nH]c2ccccc12)C(=O)N[C@H](C(=O)N[C@H](C(=O)N[C@@H](Cc1c[nH]cn1)C(=O)N[C@@H](CCCCNC(=N)N)C(=O)N[C@@H](CC(C)C)C(=O)N[C@H]1CCC(=O)NCCCC[C@@H](C(=O)N[C@@H](CCCNC(N)=O)C(=O)N[C@@H](CO)C(=O)NCC(=O)NCC(=O)N[C@H](C(=O)N[C@H](C(=O)N[C@@H](CCCCNC(=N)N)C(=O)N[C@@H](CCCCN)C(=O)N[C@@H](CC(N)=O)C(=O)N[C@@H](Cc2ccccc2)C(=O)N[C@H](C(=O)N2CCC[C@H]2C(=O)N[C@H](C(=O)N[C@@H](CC(=O)O)C(=O)N[C@H](C(=O)NCC(=O)N2[C@H](C(=O)N[C@@H](Cc3ccccc3)C(=O)N[C@@H](C)C(=O)N[C@@H](Cc3ccccc3)C(N)=O)C[C@@H]3CCCC[C@@H]32)C(C)C)[C@@H](C)O)C(C)C)C(C)C)C(C)C)NC(=O)[C@H](CC(C)C)NC(=O)[C@H](CC(C)C)NC(=O)CNC1=O)[C@@H](C)O)C(C)C` [compound 942] (Ac-WVTH[hArg]LEGLLK[Cit]SGGVV[hArg]KNFVPTDVG[Oic]FAF-NH2; lactam 7-11), for which the IC50 under setting [1] was found to be 0.83 nM.

Turning to `CC(=O)N[C@@H](Cc1c[nH]c2ccccc12)C(=O)N[C@H](C(=O)N[C@H](C(=O)N[C@@H](Cc1c[nH]cn1)C(=O)N[C@@H](CCCNC(N)=O)C(=O)N[C@@H](CC(C)C)C(=O)N[C@@H](C)C(=O)NCC(=O)N[C@@H](CC(C)C)C(=O)N[C@@H](CC(C)C)C(=O)N[C@@H](CO)C(=O)N[C@@H](CCCNC(N)=O)C(=O)N[C@@H](CO)C(=O)NCC(=O)NCC(=O)N[C@H](C(=O)N[C@H](C(=O)N[C@@H](CCCCNC(=N)N)C(=O)N[C@@H](CCCCN)C(=O)N[C@@H](CC(N)=O)C(=O)N[C@@H](Cc1ccccc1)C(=O)N[C@H](C(=O)N1[C@H](C(=O)N[C@H](C(=O)N[C@@H](CC(=O)O)C(=O)N[C@H](C(=O)NCC(=O)N2CCC[C@H]2C(=O)N[C@@H](Cc2ccccc2)C(=O)N[C@@H](C)C(=O)N[C@@H](Cc2ccc3ccccc3c2)C(N)=O)C(C)C)[C@@H](C)O)C[C@@H]2CCCC[C@@H]21)C(C)C)C(C)C)C(C)C)[C@@H](C)O)C(C)C` [compound 135] (Ac-WVTH[Cit]LAGLLS[Cit]SGGVV[hArg]KNFV[Oic]TDVGPFA[2Nal]-NH2), the 50% inhibitory concentration (IC50) (Table 2A, read-out: IC50) was found to be 3.22 nM.

Regarding “SEQ ID NO:24 (WVTHRLAGLLSXSGGVVRKNFVPTDVGPFAF; CGRP peptide; MOD_RES (1)..(1): …ON; MISC_FEATURE (12)..(12): xaa=homoarginine; MISC_FEATURE (19)..(19): PEGylated; MOD_RES (31)..(31): AMIDATION)”, the “antagonist activity in cAMP assay, in words” value is “retaining their CGRP1 receptor antagonist activity”.

As to `CC(=O)N[C@@H](Cc1c[nH]c2ccccc12)C(=O)N[C@H](C(=O)N[C@H](C(=O)N[C@@H](Cc1cnc[nH]1)C(=O)N[C@@H](CCCNC(N)=O)C(=O)N[C@@H](CC(C)C)C(=O)N[C@@H](C)C(=O)NCC(=O)N[C@@H](CC(C)C)C(=O)N[C@@H](CC(C)C)C(=O)N[C@@H](CO)C(=O)N[C@@H](CCCNC(N)=O)C(=O)N[C@@H](CO)C(=O)NCC(=O)NCC(=O)N[C@H](C(=O)N[C@H](C(=O)N[C@@H](CCCCN=C(N)N)C(=O)N[C@@H](CCCCN)C(=O)N[C@@H](CC(N)=O)C(=O)N[C@@H](Cc1ccccc1)C(=O)N[C@H](C(=O)N1CCC[C@H]1C(=O)N[C@H](C(=O)N[C@@H](CC(=O)O)C(=O)N[C@H](C(=O)NCC(=O)N1CSC[C@H]1C(=O)N[C@@H](Cc1ccccc1)C(=O)N[C@@H](C)C(=O)N[C@@H](Cc1ccccc1)C(N)=O)C(C)C)[C@@H](C)O)C(C)C)C(C)C)C(C)C)[C@@H](C)O)C(C)C` [compound 671], under “Table 2A, read-out: IC50”, the half-inhibitory concentration (IC50) is 2.15 nM.

For `CC(=O)N[C@@H](Cc1c[nH]c2ccccc12)C(=O)N[C@H](C(=O)N[C@H](C(=O)N[C@@H](Cc1cnc[nH]1)C(=O)N[C@@H](CCCNC(=N)N)C(=O)N[C@@H](CC(C)C)C(=O)N[C@@H](C)C(=O)NCC(=O)N[C@@H](CC(C)C)C(=O)N[C@@H](CC(C)C)C(=O)N[C@@H](CO)C(=O)N[C@@H](CCCNC(N)=O)C(=O)N[C@@H](CO)C(=O)NCC(=O)NCC(=O)N[C@H](C(=O)N[C@H](C(=O)N[C@@H](CCCN=C(N)N)C(=O)N[C@@H](CCCCN)C(=O)N[C@@H](CC(N)=O)C(=O)N[C@@H](Cc1ccccc1)C(=O)N[C@H](C(=O)N1CCC[C@H]1C(=O)N[C@H](C(=O)N[C@@H](CC(=O)O)C(=O)N[C@H](C(=O)NCC(=O)N1CCC[C@H]1C(=O)N[C@@H](Cc1ccccc1)C(=O)N[C@@H](C)C(=O)N[C@@H](Cc1ccccc1)C(N)=O)C(C)C)[C@@H](C)O)C(C)C)C(C)C)C(C)C)[C@@H](C)O)C(C)C` [compound 862], under setting [1], the IC50 was 0.58 nM.

Regarding `CC(=O)N[C@@H](Cc1c[nH]c2ccccc12)C(=O)N[C@H](C(=O)N[C@H]1CCC(=O)NCCCC[C@@H](C(=O)NCC(=O)N[C@@H](CC(C)C)C(=O)N[C@@H](CC(C)C)C(=O)N[C@@H](CO)C(=O)N[C@@H](CCCCNC(=N)N)C(=O)N[C@@H](CO)C(=O)NCC(=O)NCC(=O)N[C@H](C(=O)N[C@H](C(=O)N[C@@H](CCCCNC(=N)N)C(=O)N[C@@H](CCCCN)C(=O)N[C@@H](CC(N)=O)C(=O)N[C@@H](Cc2ccccc2)C(=O)N[C@H](C(=O)N2CCC[C@H]2C(=O)N[C@H](C(=O)N[C@@H](CC(=O)O)C(=O)N[C@H](C(=O)NCC(=O)N2CCC[C@H]2C(=O)N[C@@H](Cc2ccccc2)C(=O)N[C@@H](C)C(=O)N[C@@H](Cc2ccccc2)C(N)=O)C(C)C)[C@@H](C)O)C(C)C)C(C)C)C(C)C)NC(=O)[C@H](CC(C)C)NC(=O)[C@H](CCCNC(=N)N)NC(=O)[C@H](Cc2c[nH]cn2)NC1=O)C(C)C` [compound 905] (Ac-WVEHRLKGLLS[hArg]SGGVV[hArg]KNFVPTDVGPFAF-NH2; lactam 3-7), the IC50 under setting [2] was determined as 1.7 nM.

In the case of `CC(=O)N[C@@H](Cc1c[nH]c2ccccc12)C(=O)N[C@H](C(=O)N[C@H]1CCC(=O)NCCCC[C@@H](C(=O)NCC(=O)N[C@@H](CC(C)C)C(=O)N[C@@H](CC(C)C)C(=O)N[C@@H](CO)C(=O)N[C@@H](CCCNC(N)=O)C(=O)N[C@@H](CO)C(=O)NCC(=O)NCC(=O)N[C@H](C(=O)N[C@H](C(=O)N[C@@H](CCCCNC(=N)N)C(=O)N[C@@H](CCCCN)C(=O)N[C@@H](CC(N)=O)C(=O)N[C@@H](Cc2ccccc2)C(=O)N[C@H](C(=O)N2CCC[C@H]2C(=O)N[C@H](C(=O)N[C@@H](CC(=O)O)C(=O)N[C@H](C(=O)NCC(=O)N2CCC[C@H]2C(=O)N[C@@H](Cc2ccccc2)C(=O)N[C@@H](C)C(=O)N[C@@H](Cc2ccccc2)C(N)=O)C(C)C)[C@@H](C)O)C(C)C)C(C)C)C(C)C)NC(=O)[C@H](CC(C)C)NC(=O)[C@H](CCCNC(=N)N)NC(=O)[C@H](Cc2c[nH]cn2)NC1=O)C(C)C` [compound 906] (Ac-WVEHRLKGLLS[Cit]SGGVV[hArg]KNFVPTDVGPFAF-NH2; lactam 3-7), the midpoint of inhibition under setting [2], the IC50, lay at 1.15 nM.
